# Results reported in paper doi:10.1101/2023.11.15.567208 (bioRxiv, 2024).
# Columns and labels:
# [1] = ref Hylden and Wilcox, 1981, Malick and Goldstein, 1978, cited from earlier work
# Description: Alternatively, neuropeptides may have opposing effects in different parts of the circuitry meaning global loss of the gene may produce a net effect of no change in a particular behavior.
# [2] = ref von Euler and Gaddum, 1931 (Substance P); Amara et al., 1982 (CGRPα); cited from earlier work
# Description: Among the most challenging diseases to treat is chronic pain. With over 20% of the population suffering from chronic pain, we urgently need to find new analgesic targets ([Nahin et al., 2023]).
# [3] = molecular target: T1, CGRP receptor (Calcrl and Ramp1) (Mus musculus, UniProt Q9R1W5+Q9WTJ5); assay: CGRP-sniffer HEK293 cells, calcium (GCaMP6s) dose-response; format: cell-based; settings: selectivity control; HEK293 expressing Calcrl, Ramp1, GCaMP6s and Gα15
# T1 construct: expressed in transfected cells; host or cells: HEK293; Calcrl/Gα15/GCaMP6s by PiggyBac transposase (puromycin), Ramp1 by pSBbi-Neo-cmv-TETo2-RAMP1 IRES-mTagBFP2-NLS (geneticin); doxycycline-induced
# T1 sequence (Q9R1W5 23-463): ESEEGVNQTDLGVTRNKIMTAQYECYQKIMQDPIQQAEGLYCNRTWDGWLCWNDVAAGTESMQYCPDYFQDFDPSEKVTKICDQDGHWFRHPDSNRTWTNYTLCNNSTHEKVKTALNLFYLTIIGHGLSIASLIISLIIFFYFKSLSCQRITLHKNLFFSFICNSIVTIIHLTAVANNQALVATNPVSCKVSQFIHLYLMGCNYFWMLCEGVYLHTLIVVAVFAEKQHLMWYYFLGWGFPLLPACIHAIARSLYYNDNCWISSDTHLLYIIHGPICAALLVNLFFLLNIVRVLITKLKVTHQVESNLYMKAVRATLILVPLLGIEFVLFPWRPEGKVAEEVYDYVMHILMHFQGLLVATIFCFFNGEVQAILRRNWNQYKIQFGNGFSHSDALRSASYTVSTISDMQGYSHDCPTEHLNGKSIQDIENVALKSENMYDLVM
# T1 sequence (Q9WTJ5 27-148): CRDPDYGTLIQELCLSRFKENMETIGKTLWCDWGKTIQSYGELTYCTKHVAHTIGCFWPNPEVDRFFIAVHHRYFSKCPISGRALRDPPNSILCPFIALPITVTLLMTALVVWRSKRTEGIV
# Description: The copyright holder for this preprint
# (1 picture or pasted object on this page, not shown here)
# [4] = molecular target: T2, Substance P receptor (NKR1) (Mus musculus, UniProt P30548); assay: Co-culture of DRG neurons with Substance P-sniffer cells, capsaicin-evoked Substance P release; format: cell-based; settings: exogenous Substance P (10 nM); co-culture with WT or DKO DRG
# T2 construct: T2A self-cleaving peptide remnant (from the polycistronic P2A-TACR1-T2A cassette) (C); expressed in transfected cells; host or cells: Flp-In T-REx HEK293 (Thermo Fisher Scientific, R78007), lentiviral transduction, hygromycin selection
# T2 sequence (P30548 whole entry): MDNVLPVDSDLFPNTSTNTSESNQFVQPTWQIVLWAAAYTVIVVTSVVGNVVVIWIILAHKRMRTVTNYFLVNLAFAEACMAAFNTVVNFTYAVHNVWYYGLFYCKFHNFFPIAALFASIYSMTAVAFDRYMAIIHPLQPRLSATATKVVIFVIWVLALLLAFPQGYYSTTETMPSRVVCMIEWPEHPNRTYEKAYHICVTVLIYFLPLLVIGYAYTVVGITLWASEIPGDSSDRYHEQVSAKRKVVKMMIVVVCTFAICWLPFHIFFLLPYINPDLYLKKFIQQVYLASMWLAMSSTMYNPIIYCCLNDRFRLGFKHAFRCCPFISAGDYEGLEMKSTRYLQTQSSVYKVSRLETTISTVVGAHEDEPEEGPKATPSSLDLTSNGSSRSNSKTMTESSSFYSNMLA
substance,measurement,setting,value
Substance P: 11-amino acid peptide first discovered as a tissue extract with contractile activity,Effect in the brain,[1]; in the brain,analgesic
same,Effect of infusion into the spinal cord,[1]; infusion into the spinal cord,elicits pain
same,Contractile or vasodilator activity,[2],contractile activity
same,Sensitivity of CGRP-sniffer cells,[3],insensitive
same,Substance P-sniffer activation by exogenous peptide,[4],activates Substance P-sniffers in both conditions
